Source: PMC6030096, “Synergy of Physico-chemical and Biological Experiments for Developing a Cyclooxygenase-2 Inhibitor” (Scientific Reports, 2018)
Like-named read-outs stand apart in the source and are kept apart here.

Key:
COX-1 = biological target: T1, COX-1 (Ovis aries, UniProt P05979); assay: COX-1 enzyme immunoassay (Cayman inhibitor screening kit); format: biochemical
T1 construct: purchased Cayman Chemical Co. 560131
T1 sequence (P05979 25-600): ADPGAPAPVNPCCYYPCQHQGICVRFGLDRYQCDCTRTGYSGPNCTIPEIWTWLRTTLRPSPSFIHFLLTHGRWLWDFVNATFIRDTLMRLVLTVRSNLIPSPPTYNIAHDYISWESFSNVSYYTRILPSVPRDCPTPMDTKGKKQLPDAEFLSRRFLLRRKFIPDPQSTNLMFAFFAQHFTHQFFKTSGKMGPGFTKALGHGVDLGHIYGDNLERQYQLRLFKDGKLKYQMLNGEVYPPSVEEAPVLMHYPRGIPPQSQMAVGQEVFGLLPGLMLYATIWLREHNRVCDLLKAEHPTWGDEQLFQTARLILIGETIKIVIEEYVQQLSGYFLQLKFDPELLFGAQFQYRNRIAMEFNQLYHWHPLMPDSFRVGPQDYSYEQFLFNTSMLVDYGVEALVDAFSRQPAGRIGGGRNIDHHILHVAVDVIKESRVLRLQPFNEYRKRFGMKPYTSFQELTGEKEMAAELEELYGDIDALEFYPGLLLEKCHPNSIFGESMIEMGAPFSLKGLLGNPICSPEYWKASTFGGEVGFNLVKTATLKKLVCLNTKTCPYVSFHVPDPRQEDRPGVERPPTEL
Experimental: (§1) Principally, the catalytic activity of COX-1/2 is slowed down in the presence of its inhibitor and quantitatively, it is inversely proportional to the amount of prostaglandin produced in the presence of inhibitor.
(§2) The enzyme inhibition screening assay kits for COX-1/2 and 5-LOX with item no. […] The 100% initial activity tubes for the two enzymes contained 10 µL heme and 10 µL of the enzyme in 160 µL reaction buffer. Then 10 µL inhibitor (compound of above mentioned concentrations) was added to the inhibitor tubes for the two enzymes and 10 µL of vehicle (DMSO) was added to 100% initial activity and background tubes. All the tubes were incubated for 10 min at 37 °C and the reaction was started by adding 10 µL arachidonic acid to all the reaction tubes. After incubation of the reaction vials for 2 min at 37 °C, the enzyme catalysis was stopped by adding 30 µL saturated stannous chloride solution to each test tube and solutions were kept at 0–4 °C. For EIA (enzyme immunoassay) procedure: the EIA buffers and assay specific reagents were prepared as written in the manual. In the COX dilutions, two test tubes labelled as BC1 and BC2 were taken to prepare background samples. Each tube contained 990 µL of EIA buffer and 10 µL of background COX-1 for BC1 and 10 µL of background COX-2 for BC2. The samples for 100% initial activity were diluted in three vials labelled IA1, IA2 and IA3 for each enzyme. IA1 contained 990 µL EIA buffer and 10 µL enzyme, IA2 has 950 µL buffer and 50 µL solution of IA1 (1:2000 dilution of original sample) and IA3 carried 500 µL of buffer and 500 µL of IA2 solution (1:4000 dilution of original sample). Each solution was thoroughly mixed. Solutions of IA2 and IA3 were used for the assaying. […] C2 contained 950 µL buffer and 50 µL solution of C1 (1:2000 dilution of original sample) and vial C3 was charged with 500 µL buffer and 500 µL solution from C2 (1: 4000 dilution of original sample). Only C2 and C3 were run in the assay. After all the reaction dilutions, these were then subjected to 96 wells plate. The wells were divided as: 2 blank wells, 2 NSB wells (non-specific binding), 3 B0 wells (maximum binding), one TA well (total activity), 16 wells for standards (S1–S8 in repeat), 2 BC1 and 2 BC2 wells. Compounds (inhibitors) were put in all the other wells. The sequence for the addition of reagents onto the plate was as per the protocol of the assay kit. […] For developing the plate; it was emptied and washed with wash buffer 5 times followed by the addition of 200 µL Ellman’s reagent to each well. 5 µL tracer was added to the TA well. Then the plate was covered and left for 60 mins for development in dark. After the respective time period the cover was removed and the plate was read at 420 nm. %B/Bo (i.e. % sample or maximum bound) value for standards S1-S8 and each sample was determined from the absorbance values obtained according to the calculation given in the protocol. The amount of prostaglandins formed during the enzymatic reaction was calculated from the values of %B/Bo for all the compounds at all concentrations with the help of the standard curve (plotted between %B/Bo of standards and raw data given in the protocol). Then the prostaglandin formed at each concentration of all the compounds and percentage inhibition values were calculated. The graph between percent inhibition of the enzyme and corresponding concentration of the compound provided IC50 values for the compounds.

COX-2 = biological target: T2, COX-2 (Homo sapiens, UniProt P35354); assay: COX-2 enzyme immunoassay (Cayman inhibitor screening kit); format: biochemical; parameters: purchased Cayman Chemical Co. 560131; settings: for IC50: enzyme immunoassay, average of three experiments; for Selectivity index: SI = IC50 (COX-1)/ IC50 (COX-2)
T2 sequence (P35354 18-604): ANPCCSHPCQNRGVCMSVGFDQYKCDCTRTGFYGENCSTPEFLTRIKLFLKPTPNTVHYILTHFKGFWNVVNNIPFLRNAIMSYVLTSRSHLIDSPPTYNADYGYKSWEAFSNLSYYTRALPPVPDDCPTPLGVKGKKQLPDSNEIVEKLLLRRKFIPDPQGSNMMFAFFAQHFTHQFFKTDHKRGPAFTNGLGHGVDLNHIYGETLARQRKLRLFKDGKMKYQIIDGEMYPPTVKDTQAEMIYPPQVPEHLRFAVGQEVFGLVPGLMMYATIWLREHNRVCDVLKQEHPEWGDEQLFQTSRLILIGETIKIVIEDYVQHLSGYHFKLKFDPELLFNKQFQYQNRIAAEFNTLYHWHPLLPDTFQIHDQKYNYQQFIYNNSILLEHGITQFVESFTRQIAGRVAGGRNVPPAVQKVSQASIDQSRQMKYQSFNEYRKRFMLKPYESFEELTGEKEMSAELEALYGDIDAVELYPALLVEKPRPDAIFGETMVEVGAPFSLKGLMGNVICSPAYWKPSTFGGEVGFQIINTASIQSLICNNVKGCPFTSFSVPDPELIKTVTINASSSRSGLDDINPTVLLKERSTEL
Experimental: as §1, §2

[1] = enzyme immunoassay, average of three experiments, read-out: IC50 COX-1

O=C1Nc2ccccc2C1=Cc1cn(C[C@H](O)Cn2c3ccccc3c(=O)c3ccccc32)c2ccccc12 [(S)-3c]
IC50 (COX-1; [1]): 60000 ± 3000 nM
IC50 (COX-2): 800 ± 75 nM

O=C1NC(=O)C(=Cc2cn(CCCn3c4ccccc4c(=O)c4ccccc43)c3ccccc23)C(=O)N1 [Compound 4a]
IC50 (COX-1): 30000 ± 1800 nM
Selectivity index (COX-2): 300
IC50 (COX-2): 100 ± 60 nM

O=C1Nc2ccccc2C1=Cc1cn(CCCn2c3ccccc3c(=O)c3ccccc32)c2ccccc12 [Compound 4c]
IC50 (COX-1; [1]): 4000 ± 320 nM
Selectivity index (COX-2): 13.33
IC50 (COX-2): 300 ± 15 nM
